Holding throughout (format): cell-based
One test addresses T1, AKT1 E17K (Homo sapiens, UniProt P31749, E17K).
T1 construct: expressed in transfected cells; host or cells: HEK293
Kind of test: Live cell AKT1 E17K target engagement by NanoBRET competitive probe displacement. The following applies: HEK293 cells transfected with kinase-NanoLuciferase fusion, 2 h at 37° C. In short, it runs like this:
(§1)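 NanoLuc-kinase fusions, HEK293, transfected overnight; compound serial dilution + ATP-competitive fluorescent tracer at ~EC50; 2 h, 37 °C. Read 460/600 nm with extracellular NanoLuc inhibitor; BRET = E600/E460; IC50 by Hill fit.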
For orientation: In BRET a luciferase serves as donor, and the signal depends on an acceptor being close.

A further test addresses T2, AKT2 (Homo sapiens, UniProt P31751).
T2 construct: expressed in transfected cells; host or cells: HEK293
Kind of test: Live cell AKT2 target engagement by NanoBRET competitive probe displacement. The following applies: HEK293 cells transfected with kinase-NanoLuciferase fusion, 2 h at 37° C. In short, it runs like this: as §1

The target in the next test is T3, AKT1 WT (Homo sapiens, UniProt P31749).
T3 construct: expressed in transfected cells; host or cells: HEK293
T3 sequence (P31749 whole entry): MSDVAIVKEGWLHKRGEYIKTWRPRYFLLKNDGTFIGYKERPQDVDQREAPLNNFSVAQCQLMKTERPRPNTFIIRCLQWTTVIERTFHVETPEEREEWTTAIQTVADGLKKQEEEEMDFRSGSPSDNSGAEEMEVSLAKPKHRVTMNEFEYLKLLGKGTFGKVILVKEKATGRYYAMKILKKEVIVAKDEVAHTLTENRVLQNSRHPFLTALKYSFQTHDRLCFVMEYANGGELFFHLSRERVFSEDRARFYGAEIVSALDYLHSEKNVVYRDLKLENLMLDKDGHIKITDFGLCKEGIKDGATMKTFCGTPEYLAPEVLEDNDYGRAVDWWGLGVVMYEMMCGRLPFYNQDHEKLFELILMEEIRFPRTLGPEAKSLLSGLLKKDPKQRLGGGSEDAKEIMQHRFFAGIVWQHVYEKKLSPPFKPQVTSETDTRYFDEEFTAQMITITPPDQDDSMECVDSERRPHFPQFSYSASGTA
Kind of test: Live cell AKT1 WT target engagement by NanoBRET competitive probe displacement. The following applies: HEK293 cells transfected with kinase-NanoLuciferase fusion, 2 h at 37° C. In short, it runs like this:
as §1

In test [1] the test system is LAPC4 prostate cancer cells. In words: Antiproliferative effects in LAPC4 cells (CellTiter Glo). The following applies: LAPC4 cells (AKT1 E17K allele), read-out: LAPC4 proliferation IC50. In short, it runs like this:
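Luminescent ATP read-out (CellTiter Glo) after 72 h compound exposure; 1,000 cells/well in IMDM + 12% FBS + 1% P/S. IC50 by Hill equation fit of luminescence vs. log(inhibitor).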

Like-named read-outs stand apart in the source and are kept apart here.

T2 sequence (P31751 whole entry): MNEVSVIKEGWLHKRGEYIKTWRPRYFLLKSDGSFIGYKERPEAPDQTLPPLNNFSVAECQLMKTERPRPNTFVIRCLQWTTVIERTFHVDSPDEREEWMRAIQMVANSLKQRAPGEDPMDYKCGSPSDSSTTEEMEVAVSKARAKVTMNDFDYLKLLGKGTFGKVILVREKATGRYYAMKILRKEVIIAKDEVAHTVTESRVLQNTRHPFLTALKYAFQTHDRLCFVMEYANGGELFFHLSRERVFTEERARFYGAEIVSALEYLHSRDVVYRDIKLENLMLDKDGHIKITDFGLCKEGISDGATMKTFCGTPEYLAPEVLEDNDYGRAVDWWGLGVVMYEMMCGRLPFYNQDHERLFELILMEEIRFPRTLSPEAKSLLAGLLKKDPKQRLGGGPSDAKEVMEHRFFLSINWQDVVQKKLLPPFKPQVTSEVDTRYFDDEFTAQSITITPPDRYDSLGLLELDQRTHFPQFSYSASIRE
T1 sequence (P31749 whole entry E17K): as the sequence (P31749 whole entry) above, with E17K counted along it

With `C=CC(=O)N1CCC(N(CC2COC2)[C@H]2CCc3cc(-n4c(-c5cccnc5N)nc5ccc(-n6cccn6)nc54)ccc32)CC1` [Example 161, 1-(4-{[(1S)-5-[2-(2-aminopyridin-3-yl)-5-(pyrazol-1-yl)imidazo[4,5-b]pyridin-3-yl]-2,3-dihydro-1H-inden-1-yl](oxetan-3-ylmethyl)amino}piperidin-1-yl)prop-2-en-1-one], the IC50 at AKT1 E17K came out at 110 nM; on AKT2 it was 198 nM; at AKT1 WT it was 18.3 nM; in test [1] (Homo sapiens, LAPC4, 72 h) it was 100 nM.
Regarding `C=CC(=O)N1CCC(N[C@@H]2c3ccc(-n4c(-c5ccccc5F)nc5ccc(-n6cccn6)nc54)cc3CC2F)C[C@H]1C` (single isomer, unassigned) [Example 317, 1-((2R,4*)-4-(((1R,2*)-2-fluoro-5-(2-(2-fluorophenyl)-5-(1H-pyrazol-1-yl)-3H-imidazo[4,5-b]pyridin-3-yl)-2,3-dihydro-1H-inden-1-yl)amino)-2-methylpiperidin-1-yl)prop-2-en-1-one], the IC50 was 20.3 nM at AKT1 E17K, 68.4 nM at AKT2, 2590 nM at AKT1 WT and 464 nM in test [1] (72 h).
The matching figures for `C=CC(=O)N1CCC(N[C@H]2CCc3cc(-n4c(-c5cccnc5N)nc5ccc(-n6cccn6)nc54)ccc32)CC12CCC2` (single isomer, unassigned) [Example 93, 1-((*)-8-(((S)-5-(2-(2-aminopyridin-3-yl)-5-(1H-pyrazol-1-yl)-3H-imidazo[4,5-b]pyridin-3-yl)-2,3-dihydro-1H-inden-1-yl)amino)-5-azaspiro[3.5]nonan-5-yl)prop-2-en-1-one]: 6.16 nM, 11.4 nM, 5.63 nM and 5.02 nM.
`C=CC(=O)N1CCC(N[C@H]2CCc3cc(-n4c(-c5cccs5)nc5ccc(-n6cccn6)nc54)ccc32)CC1` [Example 239, 1-(4-{[(1S)-5-[5-(pyrazol-1-yl)-2-(thiophen-2-yl)imidazo[4,5-b]pyridin-3-yl]-2,3-dihydro-1H-inden-1-yl]amino}piperidin-1-yl)prop-2-en-1-one]: the IC50 is 43.2 nM on AKT1 E17K; 334 nM at AKT2; 1450 nM on AKT1 WT; 1030 nM in test [1] (Homo sapiens, LAPC4, 72 h).
For the compound `C=CC(=O)N1CCC(N[C@H]2CCc3cc(-n4c(-c5cccnc5N)nc5ccc(-c6ncco6)nc54)ccc32)CC1` [Example 109, (S)-1-(4-((5-(2-(2-aminopyridin-3-yl)-5-(oxazol-2-yl)-3H-imidazo[4,5-b]pyridin-3-yl)-2,3-dihydro-1H-inden-1-yl)amino)piperidin-1-yl)prop-2-en-1-one], the IC50 on AKT1 E17K was found to be 124 nM; at AKT2, 454 nM; at AKT1 WT it was 24.9 nM; in test [1] (Homo sapiens, LAPC4, 72 h), 3160 nM.
Regarding `C=CC(=O)N1CCCC(N[C@H]2CCc3cc(-n4c(-c5cccnc5N)nc5ccc(-n6cccn6)nc54)ccc32)C1` (single isomer, unassigned) [Example 124, 1-[(3*)-3-{[(1S)-5-[2-(2-aminopyridin-3-yl)-5-(pyrazol-1-yl)imidazo[4,5-b]pyridin-3-yl]-2,3-dihydro-1H-inden-1-yl]amino}piperidin-1-yl]prop-2-en-1-one], the IC50 on AKT1 E17K came out at 99.2 nM; at AKT2 it was 1120 nM; at AKT1 WT, 54.1 nM; in test [1] (72 h), 4860 nM.
`C=CC(=O)N1CCC(N[C@@H]2c3ccc(-n4c(-c5cccnc5N)nc5ccc(-n6ccc(F)n6)nc54)cc3CC2F)CC1` (single isomer, unassigned) [Example 236, 1-(4-(((1R,2*)-5-(2-(2-aminopyridin-3-yl)-5-(3-fluoro-1H-pyrazol-1-yl)-3H-imidazo[4,5-b]pyridin-3-yl)-2-fluoro-2,3-dihydro-1H-inden-1-yl)amino)piperidin-1-yl)prop-2-en-1-one]: the IC50 at AKT1 E17K came out at 12.4 nM; at AKT2, 87.2 nM; on AKT1 WT, 778 nM; in test [1] (Homo sapiens, LAPC4, 72 h), 300 nM.
With `C=CC(=O)N1CCc2c(C(=O)N[C@H]3CCc4cc(-n5c(-c6cccnc6N)nc6ccc(-n7cccn7)nc65)ccc43)cccc21` [Example 3, N-[(1S)-5-[2-(2-aminopyridin-3-yl)-5-(pyrazol-1-yl)imidazo[4,5-b]pyridin-3-yl]-2,3-dihydro-1H-inden-1-yl]-1-(prop-2-enoyl)-2,3-dihydroindole-4-carboxamide], the IC50 on AKT1 E17K is 32.8 nM; at AKT2 it was 70 nM; on AKT1 WT, 15.1 nM; in test [1] (Homo sapiens, LAPC4, 72 h) it was 833 nM.
For the compound `C=CC(=O)N1CCN(NC2CCc3cc(-n4c(-c5cccnc5N)nc5ccc(-n6cccn6)nc54)ccc32)CC1` (single isomer, unassigned) [Example 147, (*)-1-(4-((5-(2-(2-aminopyridin-3-yl)-5-(1H-pyrazol-1-yl)-3H-imidazo[4,5-b]pyridin-3-yl)-2,3-dihydro-1H-inden-1-yl)amino)piperazin-1-yl)prop-2-en-1-one], the IC50 at AKT1 E17K turned out to be 151 nM; on AKT2, 903 nM; at AKT1 WT, 32 nM; in test [1] (72 h), 398 nM.
For `C=CC(=O)N1CC2COCC(C1)C2N[C@H]1CCc2cc(-n3c(-c4cccnc4N)nc4ccc(-n5cccn5)nc43)ccc21` (mixture of isomers) [Example 64, 1-(9-(((S)-5-(2-(2-aminopyridin-3-yl)-5-(1H-pyrazol-1-yl)-3H-imidazo[4,5-b]pyridin-3-yl)-2,3-dihydro-1H-inden-1-yl)amino)-3-oxa-7-azabicyclo[3.3.1]nonan-7-yl)prop-2-en-1-one], the IC50 at AKT1 E17K was found to be 53.3 nM; at AKT2 it was 158 nM; on AKT1 WT, 20 nM; in test [1] (Homo sapiens, LAPC4, 72 h), 145 nM.
Consider `C=CC(=O)N1CCC(N[C@H]2CCc3cc(-n4c(-c5cccnc5N)nc5ccc(-n6cccn6)nc54)ccc32)c2ccccc21` (single isomer, unassigned) [Example 127, 1-[(4*)-4-{[(1S)-5-[2-(2-aminopyridin-3-yl)-5-(pyrazol-1-yl)imidazo[4,5-b]pyridin-3-yl]-2,3-dihydro-1H-inden-1-yl]amino}-3,4-dihydro-2H-quinolin-1-yl]prop-2-en-1-one], for which the IC50 at AKT1 E17K was determined as 8.17 nM; at AKT2, 36.9 nM; on AKT1 WT, 9.06 nM; in test [1] (72 h), 37.1 nM.
As to `C=CC(=O)N1CCC(N[C@@H]2c3ccc(-n4c(-c5cccnc5N)nc5ccc(-n6ccc(C#N)n6)nc54)cc3CC2F)CC1` (single isomer, unassigned) [Example 311, 1-(3-((1R,2*)-1-((1-acryloylpiperidin-4-yl)amino)-2-fluoro-2,3-dihydro-1H-inden-5-yl)-2-(2-aminopyridin-3-yl)-3H-imidazo[4,5-b]pyridin-5-yl)-1H-pyrazole-3-carbonitrile], the IC50 on AKT1 E17K is 34.9 nM; at AKT2 it was 246 nM; at AKT1 WT, 1190 nM; in test [1] (Homo sapiens, LAPC4, 72 h) it was 496 nM.
The matching figures for `C=CC(=O)N1CCC(N[C@H]2CCc3cc(-n4c(-c5cccnc5N)nc5ccc(N6CCN(C)CC6)nc54)ccc32)CC1` [Example 259, 1-(4-{[(1S)-5-[2-(2-aminopyridin-3-yl)-5-(4-methylpiperazin-1-yl)imidazo[4,5-b]pyridin-3-yl]-2,3-dihydro-1H-inden-1-yl]amino}piperidin-1-yl)prop-2-en-1-one]: 150 nM, 968 nM, 3290 nM and 1520 nM.
Take `C=CC(=O)NC1CC(N[C@H]2CCc3cc(-n4c(-c5cccnc5N)nc5ccc(-n6cccn6)nc54)ccc32)C1` (single isomer, unassigned) [Example 89, N-((1*,3*)-3-(((S)-5-(2-(2-aminopyridin-3-yl)-5-(1H-pyrazol-1-yl)-3H-imidazo[4,5-b]pyridin-3-yl)-2,3-dihydro-1H-inden-1-yl)amino)cyclobutyl)acrylamide]: the IC50 at AKT1 E17K was 22.9 nM; at AKT2 it was 75.2 nM; on AKT1 WT, 8.15 nM; in test [1] (72 h), 74.9 nM.
As to `C=CC(=O)N1CC2(CCC(N[C@H]3CCc4cc(-n5c(-c6cccnc6N)nc6ccc(-n7cccn7)nc65)ccc43)C2)C1` (single isomer, unassigned) [Example 92, 1-((*)-6-(((S)-5-(2-(2-aminopyridin-3-yl)-5-(1H-pyrazol-1-yl)-3H-imidazo[4,5-b]pyridin-3-yl)-2,3-dihydro-1H-inden-1-yl)amino)-2-azaspiro[3.4]octan-2-yl)prop-2-en-1-one], the IC50 at AKT1 E17K worked out at 18.9 nM; on AKT2 it was 58.8 nM; at AKT1 WT it was 6.94 nM; in test [1] (72 h), 30.7 nM.
`C=CC(=O)N1CCC(N[C@H]2CCc3cc(-n4c(-c5cccnc5N)nc5ccc(-n6cccn6)nc54)ccc3C2)CC1` [Example 296, 1-(4-{[(2S)-6-[2-(2-aminopyridin-3-yl)-5-(pyrazol-1-yl)imidazo[4,5-b]pyridin-3-yl]-1,2,3,4-tetrahydronaphthalen-2-yl]amino}piperidin-1-yl)prop-2-en-1-one]: the IC50 was 33.2 nM at AKT1 E17K; 36.6 nM at AKT2; 93.4 nM at AKT1 WT; 59.1 nM in test [1] (Homo sapiens, LAPC4, 72 h).
As to `C=CC(=O)N1CCN(N[C@@H]2CCc3cc(-n4c(-c5cccnc5N)nc5ccc(C6CC6)nc54)ccc32)CC1` [Example 350], the IC50 at AKT1 E17K came to 72.7 nM; at AKT2 it was 416 nM; at AKT1 WT, 2510 nM; in test [1] (Homo sapiens, LAPC4, 72 h), 1090 nM.

(Values after US12570655B2, “Cysteine covalent modifiers of AKT1 and uses thereof” (Terremoto Biosciences, Inc., priority 2023, dated 2026).)
